The source of these data is EP0791072B1, “PROCESS FOR DETERMINING THE ACTIVITY OF SPECIFIC PHOSPHOTYROSINE PHOSPHATASES AND SPECIFIC EFFECTORS THEREOF IN INTACT CELLS” (Max-Planck-Gesellschaft zur Förderung der Wissenschaften …, priority 1994, dated 1996).

Format in all cases: cell-based, Maus
One experiment relates to PDGF-Rezeptor PTK. Put plainly: Inhibition of PDGF-induced receptor autophosphorylation in intact Swiss 3T3 cells (anti-phosphotyrosine immunoblot). Conditions: AG 1296 50 µM, 2 min preincubation, then PDGF-BB 100 ng/ml for 5 min. The text has this:
(§1) Swiss 3T3 Fibroblasten (Maus) exprimieren PDGFα und PDGFβ-Rezeptoren auf der Zelloberfläche (Hosang et al. (1989)). Die Stimulation der Zellen mit PDGF führt zu einer raschen Autophosphorylierung dieser Rezeptoren an Tyrosinresten. […] Die autophosphorylierten Rezeptoren werden durch PDGF-Rezeptor-gerichtete PTPase(n) rasch dephosphoryliert (Bohmer et al. (1993)). Die Identität der zellulären PTPasen, die diese Reaktion katalysieren, ist nicht bekannt. Ein hochspezifischer Inhibitor für die PDGF-Rezeptor PTK (AG 1296) hemmt deren Aktivität bereits nach sehr kurzer Behandlung der Zellen (2 min) vollständig (Abb. 1). In isolierten Membranen von Swiss 3T3-Zellen beeinflußt der Inhibitor die in den Membranen enthaltenen PTPase(n) für den autophosphorylierten PDGF-Rezeptor in ihrer Aktivität nicht (Abb. 2). Wird der Inhibitor Zellen nach Aktivierung der PDGF-Rezeptor PTK zugesetzt, kann die Dephosphorylierung des PDGF-Rezeptors zeitabhängig verfolgt werden (Abb. 3).

Another experiment has as its system PDGF-Rezeptor. As to the kind of experiment: Time course of PDGF receptor phosphotyrosine content in intact Swiss 3T3 cells, PTK inhibitor added after PDGF stimulation. Conditions: AG 1296 50 µM added after 5 min PDGF stimulation, over incubation time.
Source text: as §1
Swiss 3T3-Zellen wurden in serumfreiem Medium mit PDGF (Abb. 3, Bahn 2-6) oder dem entsprechenden Lösungsmittel (Abb. 3, Bahn 1) behandelt. Nach 5-minütiger Stimulation wurde AG 1296 (50 µM, Abb. 3 B) oder entsprechendes Lösungsmittel (DMSO, Abb. 3 A) zugesetzt. […] Diese Abnahme wird durch die Aktivität der PDGF Rezeptor-gerichteten PTPase in den intakten Zellen bewirkt. Eine graphische Auswertung ist in Abb. 4 gezeigt. […]

Experiment [1] concerns PDGF-Rezeptor-gerichtete(n) PTPase(n).

The structures appear in SMILES notation.

With `COc1cc2ncc(-c3ccccc3)nc2cc1OC` [AG 1296], the “PDGF-induzierte Autophosphorylierung des Rezeptors” value with PDGF-Rezeptor PTK is recorded as “vollständig unterdrückt”. Further, the “Phosphotyrosingehalt der PDGF-Rezeptoren” value with PDGF-Rezeptor is on record as “kontinuierlich ab”.

As to `CNc1ccc2oc(C[C@H]3O[C@@]4(CC[C@H]3C)O[C@H]([C@H](C)C(=O)c3ccc[nH]3)[C@H](C)C[C@H]4C)nc2c1C(=O)O` [A 23187, 5-(Methylamino)-2-[[3,9,11-trimethyl-8-[1-methyl-2-oxo-(1H-pyrrol-2-yl)ethyl]-1,7-dioxaspiro[5,5]undec-2-yl]methyl]-4-benoxazolcarbonsäure], in experiment [1], the “Relative PDGF Rezeptor-gerichtete PTPase-Aktivität (% der Kontrolle)” value is listed as 161 % der Kontrolle.
